Experiments:
[1] = tested on: Mortierella elongata AG77; test: Carbon source utilisation in Biolog 96-well plates, formazan formation after tetrazolium addition; assay type: cell-based; details: for Metabolized: Metabolized = more formazan formation than a control containing no carbon source, observed visually at 2 h, 24 h, 148 h; for Carbon sources that Mortierella elongata AG77 can metabolize: summary of Table 3
Procedure, shortened: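 Carbon- or nitrogen-free mineral medium (pH 5.5) was dispensed onto lyophilised carbon or nitrogen sources and inoculated with 3 mm mycelial plugs of M. elongata grown on PDA. After 24 h at 21 °C, tetrazolium chloride was added and formazan was scored visually at 2, 24 and 148 h against a no-carbon-source control.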

[2] = tested on: Mortierella elongata AG77; test: Nitrogen source utilisation in Biolog 96-well plates, formazan formation after tetrazolium addition; assay type: cell-based; details: for Metabolized: Metabolized = more formazan formation than a control containing no nitrogen source, observed visually at 2 h, 24 h, 148 h

SMILES | Toxic [1] | Metabolized ([1]; compound as carbon source) | Carbon sources that Mortierella elongata AG77 can metabolize [1] | Toxic [2] | Metabolized ([2]; compound as nitrogen source) | Toxic ([1]; compound as carbon source, Toxic = less formazan formation than a control containing no carbon source) | Toxic ([2]; compound as nitrogen source, Toxic = less formazan formation than a control containing no nitrogen source) | Nitrogen sources that Mortierella elongata AG77 can metabolize ([2]; text summary of Table 4)
CC(=O)N[C@@H](CCC(=O)O)C(=O)O [N-Acetyl-L-Glutamic Acid] | no | yes | can metabolize | no | no | – | – | –
NCCc1ccccc1 [Phenylethyl-amine] | – | no | – | – | no | no | no | –
NCCCCN [Putrescine] | no | yes | can metabolize | no | no | – | – | –
Cc1cn([C@H]2C[C@H](O)[C@@H](CO)O2)c(=O)[nH]c1=O [Thymidine] | no | no | – | no | no | – | – | –
NCCc1ccc(O)cc1 [Tyramine] | no | yes | can metabolize | no | no | – | – | –
O=c1ccn([C@@H]2O[C@H](CO)[C@@H](O)[C@H]2O)c(=O)[nH]1 [Uridine] | no | no | – | no | no | – | – | –
NCCCC(=O)O [γ-Amino Butyric Acid] | no | no | – | no | yes | – | – | can metabolize
NCCCCC(=O)O [δ-Amino Valeric Acid] | no | no | – | no | no | – | – | –

Source: patent US20200325505A1, “FILAMENTOUS FUNGI CAPABLE OF PRODUCING VERY LONG CHAIN FATTY ACIDS” (UT-Battelle, LLC, priority 2019, published 2020)
